Literature values in patent EP0719130B1, “COMPLEX CALCIUM AND FLUORIDE CONTAINING MOUTH RINSES, DENTIFRICES, AND CHEWABLE TABLETS” (AMERICAN DENTAL ASSOCIATION HEALTH FOUNDATION, priority 1993, dated 1995).

Conditions: buffer acid or salt

| pK | Molecule |
| --- | --- |
| 7.4 | O=S(=O)(O)CCN1CCN(CCO)CC1 [HEPES] |
| 14.15 | OCC(O)CO [glycerol] |

| Molecule | pK |
| --- | --- |
| tyrosine salts | 8.4 |
